Consider 42 substances from US8669346B2, “Bone marrow targeting peptides” (Case Western Reserve University, priority 2010, dated 2014).

Entries after “also recorded” stand apart in the source; their conditions may differ. Where no end group is shown, it is not given here.

Series [1] deals with bone marrow. Put plainly: in vivo phage display screening; sequencing of phage plaques after the 5th round of injection. Also noted: species or system C57BU6 mice. Conditions: for Sequence copy number C BM: control bone marrow; for Sequence copy number C BM / Sequence copy number Irr BM: 20 plaques per organ isolate; for Sequence copy number Irr BM: irradiated bone marrow; for Sequence copy number Lung: 20 plaques per organ isolate (Table III); for R. Leg (IRR) / Lung / L. Leg (Non-IRR): number of sequenced plaques with this sequence; for R. Leg (IRR): bone marrow of irradiated right leg; for R. Leg (IRR) / L. Leg (Non-IRR): after last injection; for Lung: after last injection (Table II); for L. Leg (Non-IRR): bone marrow of non-irradiated left leg. The protocol:
FIG. 2 illustrates schematic view of a phage screening strategy in accordance with an aspect of the application. The entire procedure was repeated 5 times to eliminate non-specific phage. On the fifth extraction, phage plaques were isolated from multiple organs and individually collected, expanded and sequenced.
(§1) C57BU6 mice had their right leg irradiated then, 24 h later, a phage library was injected and allowed to circulate, bone marrow was then harvested and the phage pool isolated. Phage were amplified and injected into the next mouse, and this process repeated a total of five times. The phage pool was then analysed from irradiated and non-irradiated legs and the sequences determined. Individual phage were then amplified, injected into irradiated mice and tissue distribution assessed. Table 1 lists the different peptides that came out of the sequencing from plaques plated after the last injection.
The screening methodology employed for isolating bone marrow-binding peptide sequences via phage display is illustrated in FIG. 2. Included in our screening strategy was the idea of obtaining some bone marrow-binding peptides that had high affinity for irradiated bone marrow, which, although not a required feature for targeting UCB cells to marrow, could be useful for engraftment into hosts where radiation treatment is part of the conditioning regimen. After the 5th round of phage injections, phage was isolated from lungs and from irradiated and non-irradiated bone marrow and sequenced (20 plaques per organ isolate).

For series [2], the system named is bone marrow. As to the kind of experiment: distribution of individual phage injected into mice whose right leg was irradiated (FIG. 1). The series is classed as in vivo. On the procedure: FIG. 1 illustrates the distribution of individual phage injected into mice whose right leg was irradiated. The amount of phage was normalized to tissue mass.
as §1

The test system of series [3] is bone marrow. Put plainly: phage playoff screen, phage titer (PFU) per gram of tissue (FIG. 3). It counts as in vivo. Conditions: equimolar phage injected, single mouse. The protocol:
FIG. 3 illustrates a chart showing the results of a phage “playoff screen” where equimolar amounts of phage were injected into a mouse and plaque forming units (PFU) quantified.
We conducted a “playoff screen” to confirm bone marrow-targeting specificity. To perform a Playoff Screen, selected phage, along with a randomly selected phage from the pre-selected phage pool, were injected at equi-molar amounts into irradiated and non-irradiated mice, the bone marrows extracted, weighed and assayed for phage titer per gram of tissue; an example of the results of a Playoff Screen is shown in FIG. 3. While the data shown here are from only a single mouse, the results were important in several aspects.

In series [4] the test system is bone marrow. As to the kind of experiment: spleen and bone marrow-targeting of UCB cells coated with RKV-CCP, qRT-PCR of human ALU sequences (FIG. 5). The series is classed as in vivo, mice. The note with it: 3 weeks post injection. The text has this:
FIG. 5 illustrates a chart showing ALU qRT-PCR quantification of human UCB cell numbers. The y-axis indicates human cell numbers calculated from a human cell standard curve. RKV=RKV-coated human UCB cells; NC=Non-coated human UCB cells; P=Plasma-injected. ρ values are from Student's t test between RKV and NC samples. The squares indicate the individual values for the RKV samples.
Preliminary spleen and bone marrow-targeting of UCB cells has already been conducted with the RKV peptides as a CCP molecule (RKV-CCP). UCB cells were isolated using a discontinuous Percol gradient, red blood cells were lysed with ammonium chloride, and the cells were incubated at 37° C. for a total of 10 min with RKV-CCP molecule (30 μg/ml), centrifuged, washed and stored at 4° C. until injected. Progenitors from two separate UCB units were coated and tested. Mice were sub-lethally irradiated with 250 cGy and injected with 1.0×10^8 RKV-CCP coated or non-coated UCB cells, or plasma-only control; 2 mice per group per UCB sample for a total of 4 mice per injection group. Bone marrow, spleen and blood were collected 3 weeks post injection. qRT-PCR was then conducted to assess human ALU sequences. The number of human cells found in the marrow was derived from a qRT-PCR standard curve of known amounts of human cell mixed with murine […] cells. […] Plasma-injected mice had essentially no signal.
A general note: In qPCR the cycle at which signal appears reflects the starting amount.

The subject of series [5] is UCB CD34+ cells. As to the kind of experiment: MTT assay, toxicity on coated cells. It counts as cell-based, human. Conditions: data not shown. On the procedure: (§2) The CCP molecule has three primary components: One, the targeting peptide sequence; two, a linker sequence containing a biotinylated amino acid; and, three a lipid moiety for integration into the cell membrane (FIG. 4). Once synthesized, all CCP molecules are tested for purity and molecular weight using HPLC and mass spectroscopy (located in the Puget Sound Blood Center); for their ability to coat UCB CD34+ cells using flow cytometry, for any toxicity effects on progenitors using MTT and hematopoietic colony forming unit (CFU) assays.
(§3) Sequences from this initial round of selection (CALFFV (SEQ ID NO:1), RAPGGET (SEQ ID NO:41), RKVVVGS (SEQ ID NO: 4) and control RSR) were contracted out to commercial vendors for synthesis into CCPs. One single-hit sequence from bone marrow, RKVVVGS (SEQ ID NO:4), termed “RKV”, was successfully synthesized, purified, and its molecular weight validated by mass spectroscopy.
A general note: Tetrazolium dyes change colour on reduction, which living cells bring about.

The test system of series [6] is UCB CD34+ cells. Put plainly: cell coating by CCP, flow cytometry using FITC-labeled Streptavidin. It counts as cell-based, human. On the procedure: as §2, §3
Series [7] deals with spleen. As to the kind of experiment: isolated phage injected into whole body irradiated mice. It counts as in vivo.

Take CALFFV (listed as Homo sapiens): in series [1], the “Sequence copy number C BM” value turned out to be 0, the “Sequence copy number Irr BM” value was 4, the “Sequence copy number Lung” value came out at 1 and the “R. Leg (IRR)” value was 4. In series [1], the Lung was found to be 1.

“CGYREVSSAALE (listed as Homo sapiens) [-CGYREVSSAALE]”: the “R. Leg (IRR)” value in series [1] stood at 1.

For DDQSVSRKLAAALE (listed as Homo sapiens), in series [1], the “Sequence copy number C BM” value was found to be 0, the “Sequence copy number Irr BM” value was 3, the “Sequence copy number Lung” value was 0 and the “R. Leg (IRR)” value was found to be 3. Moreover, in series [2] (individual phage, irradiated versus non-irradiated leg, in words), the “increased signal in irradiated leg” value is on record as “exception”.

The substance DGRSSRG (listed as Homo sapiens) gave a Lung in series [1] of 1.

Take “DLAHDALLAWGPPSINCLTLGAP (listed as Homo sapiens)”: in series [1], the “R. Leg (IRR)” value amounted to 1.

In turn, “DRN-RSA (DRNRSA; listed as Homo sapiens)” yielded a Lung in series [1] of 1.

In the case of “EGGNEV (listed as Homo sapiens) [EGGN-EV]”, in series [1], the “L. Leg (Non-IRR)” value is 1 and the Lung turned out to be 1.

In the case of “FSGRRLVSPRPHPSN (listed as Homo sapiens)”, the Lung in series [1] is recorded as 1.

As to GDRRDSR (listed as Homo sapiens), in series [1], the “L. Leg (Non-IRR)” value is reported as 1.

Turning to “GGL-RGGKLAAALE (GGLRGGKLAAALE; listed as Homo sapiens)”, in series [1], the Lung is given as 1.

Turning to GGNANRR (listed as Homo sapiens), the Lung in series [1] amounted to 1.

For the substance GIRVMEK (listed as Homo sapiens), in series [1], the “Sequence copy number C BM” value worked out at 0, the “Sequence copy number Irr BM” value is given as 2, the “Sequence copy number Lung” value stood at 0 and the “R. Leg (IRR)” value turned out to be 2.

GMKGVQL (listed as Homo sapiens) came in with a Lung in series [1] of 1.

Consider GPGLKEM (listed as Homo sapiens), for which, in series [1], the “L. Leg (Non-IRR)” value is 4.

For GRELRGQ (listed as Homo sapiens), in series [1], the “L. Leg (Non-IRR)” value came to 1.

Turning to “GRGDR-R (GRGDRR; listed as Homo sapiens)”, the Lung in series [1] is given as 1.

As for “GRRGGAKPAVASRR (listed as Homo sapiens) [GRR-GGAKPAVASRR]”, the “L. Leg (Non-IRR)” value in series [1] is recorded as 1.

Take KSMARHR (listed as Homo sapiens): in series [1], the “L. Leg (Non-IRR)” value is 1 and the Lung is reported as 1.

Take “KVSD-SL (KVSDSL; listed as Homo sapiens)”: in series [1], the Lung was determined as 1.

As for LDSSLFN (listed as Homo sapiens), in series [1], the “L. Leg (Non-IRR)” value is on record as 1.

Regarding LSTNRFV (listed as Homo sapiens), the “L. Leg (Non-IRR)” value in series [1] was 1.

LSTRVER (listed as Homo sapiens) had a Lung in series [1] of 1.

For QARNGGR (listed as Homo sapiens), in series [3], the “phage levels / binding in lung” value is on record as “high levels; also recorded: highest level”, the “phage levels / titers in bone marrow” value is on record as “low levels” and the “titers in the lung compared with bone marrow” value is listed as “greater”. Moreover, in series [1], the “Sequence copy number C BM” value is listed as 0, the “Sequence copy number Irr BM” value turned out to be 0 and the “Sequence copy number Lung” value is on record as 1. For the same substance, the “bone marrow specificity in the sequencing screen” value in series [1] (in words) is given as “no bone marrow specificity”.

For QNDSASG (listed as Homo sapiens), the Lung in series [1] came out at 1.

For the substance RAANTAR (listed as Homo sapiens), the Lung in series [1] stood at 1.

As for RAPGGET (listed as Homo sapiens), in series [1], the “Sequence copy number C BM” value was found to be 0, the “Sequence copy number Irr BM” value is 1 and the “Sequence copy number Lung” value amounted to 0.

For “RGLQTGLEGSAWLLECGRA (listed as Homo sapiens)”, in series [1], the “R. Leg (IRR)” value was 1.

With “RKV: cell coating peptide: RKVVVGS targeting sequence, spacer with biotin-labeled amino acid, lipid moiety for membrane insertion (also: spacer with biotin-labeled amino acid, end not given here, lipid moiety for membrane insertion, end not given here; listed as Homo sapiens)”, in series [4] (1.0×10^8 UCB cells coated at 30 μg/ml, 250 cGy, ρ value 0.09), the “human-derived cells in bone marrow compared to control non-coated cells” value was roughly 7 ×. Besides, the “UCB cell numbers in bone marrow compared to spleen” value in series [4] was “approximately 6 times”. For the same substance, the “UCB cell numbers in the spleen compared to uncoated UCB cells” value in series [4] (statistically significant) is “enhanced”. In series [5], the “toxic effects on coated cells (MTT)” value is given as “no toxic effects”. In addition, the “ability to coat cells” value in series [6] is given as “able to coat cells efficiently”.

Turning to RKVVVGS (listed as Homo sapiens), in series [1], the “Sequence copy number C BM” value came out at 0, the “Sequence copy number Irr BM” value stood at 1, the “Sequence copy number Lung” value came out at 0 and the “R. Leg (IRR)” value came out at 1. In addition, in series [2] (in words), the “binding in irradiated legs” value is “marked increase in binding” and the “binding in non-irradiated legs” value was “minimal binding”. The “signal in the irradiated leg relative to non-irradiated leg” value in series [2] (individual phage, right leg irradiated, phage normalized to tissue mass) is listed as “approximately 15 ×”. Besides, the binding to spleen result in series [7] was “highly increased binding”.

Regarding RQDGRHG (listed as Homo sapiens), in series [1], the “Sequence copy number C BM” value is listed as 0, the “Sequence copy number Irr BM” value is listed as 1, the “Sequence copy number Lung” value is listed as 0 and the “R. Leg (IRR)” value was 1.

On to RRSGKLL (listed as Homo sapiens), for which, in series [1], the “L. Leg (Non-IRR)” value stood at 2.

For SIGHRRE (listed as Homo sapiens), in series [3], the “phage levels / titers in bone marrow” value is recorded as “minimal”. Moreover, in series [1], the “Sequence copy number C BM” value is on record as 4, the “Sequence copy number Irr BM” value came to 0, the “Sequence copy number Lung” value is 0 and the “L. Leg (Non-IRR)” value is reported as 1.

Consider “SSYALI (listed as Homo sapiens) [SS-YALI]”, for which, in series [1], the “Sequence copy number C BM” value amounted to 1, the “Sequence copy number Irr BM” value is reported as 5, the “Sequence copy number Lung” value is recorded as 0 and the “R. Leg (IRR)” value is 5.

In series [1], SVAPLRR (listed as Homo sapiens) returned a Lung of 1.

“TS-QLWC (TSQLWC; listed as Homo sapiens)”: the “L. Leg (Non-IRR)” value in series [1] came to 4.

For TSLKDDR (listed as Homo sapiens), the Lung in series [1] worked out at 1.

“VFSGVEVSSRPHSSN (listed as Homo sapiens)”: in series [1], the Lung came out at 1.

With VGPSVGP (listed as Homo sapiens), the “L. Leg (Non-IRR)” value in series [1] amounted to 1.

In series [1], “VGVRIGGSLRPHSSN (listed as Homo sapiens)” returned a Lung of 1.

Substance VSGSVR (listed as Homo sapiens) displayed a Lung in series [1] of 1.

Regarding “VSKRDL (listed as Homo sapiens) [V-SKRDL]”, the “R. Leg (IRR)” value in series [1] is on record as 1.

The substance VVRAK (listed as Homo sapiens) returned a Lung in series [1] of 1.
